Reference: patent US6676950B2, “Neurokinin receptor antagonists and methods of use thereof for inhibiting HIV infection” (The Children's Hospital of Philadelphia, priority 2001, dated 2004)

What was measured:
HIV LTR promoter = assay: HIV LTR-driven CAT activity assay in U38 cells; format: cell-based
Excerpt: ACH-2 and U38 cell lines (25, 26) were obtained from the NIH AIDS Reagent Program. DNA extracted from ACH-2 cells was used as a positive standard for HIV DNA PCR as previously reported (27). The U38 cell line contains stably integrated, silent copies of the HIV LTR (long terminal repeat) promoter linked to a CAT (chloramphenicol acetyltransferase) gene and was used to study the effect of SP and/or CP-96,345 and R-113281 on the activation of HIV LTR promoter.
Chloramphenicol acetyltransferase (CAT) activity assay: U38 cells (2×10^6 cells) were incubated with different concentrations of SP and/or CP-96,345 or R-113281 for 48 h. Untreated U38 cells were used as a background control. Cellular proteins were extracted using 1X Reporter Lysis Bufffer (Promega Corp., Madison, Wis.). The lysates were incubated with a mixture containing 0.15 μCi of ^14C-labeled chloramphenicol (DuPont Inc., Boston, Mass.) and 200 μg/ml of n-Butyryl CoA (Promega Corp., Madison, Wis.) in a total volume of 125 μl at 37° C. for 3 h. The acetylated forms of chloramphenicol were extracted with xylene (Aldrich Chemical Company, Milwaukee, Wis.). CAT activity of each sample was quantified using a liquid-scintillation counter (Packard Instrument Company, Downers Grove, Ill.). The results were expressed as the ratio of CAT activity (CPM) of the SP and/or CP-96,345-treated or R-113281-treated U38 to that of the background control.

HIV Bal strain [1] = assay: HIV RT activity in culture supernatants of HIV Bal strain-infected MDM; format: cell-based, HIV-1
Protocol: The cells were also incubated with SP and/or anti-SP antibody. In this case, SP was incubated with (1:1000 dilution in 10% FCS DMEM) or without anti-SP antibody at room temperature for 10 min and then the mixture was added to the cell cultures for 2 h. When the cells were treated with the combination of CP-96,345 and SP, or CP-96,345, SP and anti-SP antibody, CP-96,345 was incubated with the cell culture for 10 min and then SP was added to the MDM or CP-96,345, SP and anti-SP (1:1000 in 10% FCS DMEM) were incubated for 10 min at room temperature and the mixture was incubated with the MDM for 2 h before infection with HIV. Untreated MDM served as controls. The cells were treated prior to, during, and throughout the infection.
(§1) HIV Infection: After 2 h incubation with or without the reagents described above, the cells were infected with equal amounts of cell-free HIV based on p24 antigen content (20 ng/10^6 cells) overnight, and then washed to remove unbound virus. Fresh media containing SP and/or CP-96,345 or anti-SP antibody were added to the MDM as described above. The culture media and the reagents were replaced twice weekly. The culture supernatants were harvested for HIV reverse transcriptase (RT) activity determinations. After HIV infection, the MDM were incubated for 8 to 12 days. At the termination of the experiments, cellular RNA was extracted for assessment of HIV gag gene expression using RT-PCR or real time RT-PCR assays.
The HIV RT activity assay was carried out based on the technique of Willey et al. (30) with modification (22).

HIV Bal strain [2] = assay: HIV gag mRNA in infected MDM by RT-PCR / real time RT-PCR; format: cell-based; details: 12 days after infection
Protocol: as §1
Total RNA was isolated from human peripheral blood MDM (10^6 cells) using Tri-Reagent (Molecular Research Center, Cincinnati, Ohio) as we previously reported (16).
Reverse transcription: Total RNA (1 μg) was reverse transcribed using Reverse Transcription System (Promega, Madison, Wis.) with the specific primers (antisense) for HIV gag (5′-[…]-[…]-3′; SEQ ID NO: 1) (27) or CCR5 (5′-[…]-3′; SEQ ID NO: 2) (32) for 1 h at 42° C. RT reactions was terminated by incubating the reaction mixture at 99° C. for 5 min and then kept at 4° C. The resulting cDNA was used as a template for PCR amplification or real time PCR quantification. […]

TNF-α = assay: LPS-stimulated TNF-α production in MDM by ELISA; format: cell-based, human; details: 10^−9 to 10^−7M; LPS 1 ng/ml; 24 h
Protocol: In order to determine the role of CP-96,345 in the regulation of cytokine secretion, 7-day-cultured MDM were incubated with or without CP-96,345 (10^−9 to 10^−7M) and/or LPS (1 ng/ml) for 24 h. The culture supernatants were collected to determine TNF-A and IL-6 levels by ELISA. The ELISA kits were purchased from Endogen, Inc. (Woburn, Mass.).

Compound	effect on SP activation of HIV LTR-driven CAT activity (HIV LTR promoter; SP (10^−8M) plus R-113281 (10^−6M), 48 hours)	HIV RT activity (HIV Bal strain [1]; MDM treated 2 hours, HIV-1 M-tropic strain Bal, day 8 post-infection)	HIV gag mRNA expression (RT-PCR) (HIV Bal strain [2]; 10^−11 to 10^−7 M)	HIV gag gene mRNA copy numbers (real time RT-PCR) (HIV Bal strain [2]; same samples)	LPS-stimulated TNF-A production in MDM (TNF-α)	effect on SP activation of HIV LTR-driven CAT activity (HIV LTR promoter; SP 10^−8M plus CP-96,345 10^−6M, 48 h)	viral replication as determined by HIV RT activity (HIV Bal strain [1]; 10^−7M, 8 days after infection, vs HIV infection control)	effect on SP-enhanced HIV replication in MDM (HIV RT activity and HIV gag mRNA levels) (HIV Bal strain [1]; SP 10^−6M, CP-96,345 10^−6M, anti-SP antibody 1:1000 dilution, 12 days after infection)	HIV replication relative to HIV infection control (HIV Bal strain [1]; in presence of SP 10^−6M, CP-96,345 10^−6M and/or anti-SP antibody 1:1000, 12 days)
COc1cc(C(=O)N2CCO[C@](CCN3CCC4(CC3)c3ccccc3C[S@+]4[O-])(c3ccc(Cl)c(Cl)c3)C2)cc(OC)c1OC.Cl [R-113281]	abrogated	significantly reduced							
COc1ccccc1CN[C@H]1C2CCN(CC2)[C@H]1C(c1ccccc1)c1ccccc1 [CP-96,345, [2S,3S)-cis-2-(diphenylmethyl)-N-[(2-methoxyphenyl)-methyl]-1-azabicyclo [[2.2.2]-octan-3-amine]]			potently inhibited	significantly suppress	attenuated	abrogated	inhibited	abrogated	down-regulated HIV replication to a level that was even lower than that of the HIV infection control
